From US4585861A, “1,2,4-triazine derivatives” (Eli Lilly and Company, priority 1985, dated 1986)
Where a name gives a salt, the structure may show the parent alone.

Legend:
[1] = Mouse Writhing Inhibition Assay; assay type: in vivo, Cox standard strain albino male mice
Description: Writhing, which is characterized by contraction of the abdominal musculature, extension of the hindlegs, and rotation of the trunk, was induced in Cox standard strain albino male mice. The mice, weighing 18-24 grams, were fasted overnight and given the test compound by gavage in an acacia suspension (5%) 60 minutes before writhing was induced by the intraperitoneal administration of 55 mg./kg. of acetic acid (0.55 percent). Each treatment group consisted of 3 mice. The total number of writhes for the treatment group was determined during a 5-minute observation starting 5 minutes after acetic acid administration.

[2] = Appetite Suppression Assay; assay type: in vivo, Cox standard strain albino male mice; details: Mus musculus
Description: In this test, groups of three Cox standard strain albino male mice were weighed (18-24 grams) and then fasted overnight (16-18 hours). The mice were reweighed and then given the test compound in a suspension of acacia (5%) by gavage. Thirty minutes after oral administration, the mice were allowed to eat freely for one hour. After the eating period, the mice were weighed once more. The percent of weight gained (from the time the mice were given the test compound to after the feeding period) compared to weight lost during the fast period was calculated. The non-drug treated control animals gained back 35-55% of the weight lost on fasting. Any compound at the dose level tested which produced a weight gain of less than 10% was considered to be active. The results in Table 2 report the lowest dose level in which there was activity for each compound tested. Dextroamphetamine sulfate is active in this system at about 2.5 mg./kg.

[3] = Metrazole Induced Convulsion Inhibition Assay; assay type: in vivo, Cox standard strain albino male mice; details: Mus musculus
Description: (§1) In this assay, a compound to be tested was suspended in acacia (5%) and administered by gavage to each of three Cox standard strain albino male mice (18-24 grams) at the dose level being investigated. One hour after the oral administration, a water solution of metrazole (pentylenetetrazole) was administered by the intraperitoneal route to each mouse at a dose of 110 mg./kg. […] A score of 0 was assigned to a mouse not showing any signs of convulsant activity; a score of 1 was given to mice developing clonic convulsions; a score of 2 was given to mice showing flexor tonic convulsions; a score of 3 was given to mice showing extensor tonic convulsions; and a score of 4 was given to mice that died within the one hour. The scores of the three mice were totalled for each compound and dose level. The scores can range from 0 to 12; a score of 6 or less was interpreted as indicative of an active compound at that dose level. Values reported in Table 2 below are the minimum oral dose levels (mg./kg.) where activity as defined above was observed.

[4] = Electroshock Induced Convulsion Inhibition Assay; assay type: in vivo, Cox standard strain albino male mice; details: Mus musculus
Description: as §1
The drug administration and test conditions used in this assay were similar to those used in the metrazole induced convulsion inhibition assay above except that a 0.1 second, 50 milliampere electroshock through corneal electrodes induced the convulsion instead of metrazole. The animals were examined and evaluated immediately after the electroshock and were scored as before. The results in Table 2 are expressed as the lowest dose of each compound tested which was active as previously defined. For comparison, 18 milliamperes was usually sufficient to produce extensor tonic convulsions in about half of the control animals; at 50 milliamperes, almost all control animals died. Diazepam was active at about 1 mg./kg.

GABA receptor = experiment: In vitro activation of GABA binding ([3H]GABA, Triton X-100 treated membrane protein); details: average of one or more tests, read-out: SC50 GABA (nanomolar concentration producing a 50% increase in binding)
Description: (§2) The novel compounds of this invention were examined for their in vitro ability to activate GABA and benzodiazepine (BZ) binding. To measure the effect of a compound on GABA binding, Triton X-100 (octylphenoxy polyethoxyethanol, Rohm and Haas Co.) treated membrane protein was incubated in the presence of the compound and [^3 H]GABA as detailed by Horng and Wong, J. Neurochemistry, 32 (5), 1379 (1979). To examine BZ binding, H-flunirazepam and the compounds were incubated with native membrane protein as reported by Wong, et al, Brain Res. Bull., 5 (Suppl. 2), 853 (1980). The results in Table 1 are the nanomolar concentrations of compounds (by Example No.) which produced a 50 percent increase (SC50) in GABA or BZ binding. Each result is the average of one or more tests.

benzodiazepine receptor = experiment: In vitro activation of benzodiazepine (BZ) binding (flunirazepam, native membrane protein); details: average of one or more tests, read-out: SC50 BZ (nanomolar concentration producing a 50% increase in binding)
Description: as §2

[5] = oral gavage, 1 h before metrazole 110 mg./kg. i.p., active = total score of 6 or less (3 mice, range 0-12), read-out: Minimum active oral dose, Metrazole
[6] = oral, 0.1 second, 50 milliampere corneal electroshock, active = total score of 6 or less, read-out: Minimum active oral dose, Electro-Shock
[7] = oral gavage 30 min before feeding, active = weight gain of less than 10% of weight lost on fasting, read-out: Minimum active oral dose, Appetite Suppression
[8] = oral gavage 60 min before acetic acid 55 mg./kg. i.p., active = less than ten writhes, read-out: Minimum active oral dose, Mouse Writhing

| Compound | EC50 (GABA receptor) | EC50 (benzodiazepine receptor) | minimal effective dose [3, 5] | minimal effective dose [4, 6] | minimal effective dose [2, 7] | minimal effective dose [1, 8] | other results |
| --- | --- | --- | --- | --- | --- | --- | --- |
| CC(=O)Oc1ccccc1C(=O)O [Aspirin, acetyl salicylic acid, reference compound] |  |  |  |  |  |  | minimal effective dose ([1]; po, read-out: dose showing activity, mouse writhing (reference)): 200 mg/kg |
| C[C@H](N)Cc1ccccc1 [Dextroamphetamine sulfate, reference compound] |  |  |  |  |  |  | minimal effective dose ([2]; po, read-out: dose showing activity, appetite suppression (reference)): ~2.5 mg/kg |
| CN1C(=O)CN=C(c2ccccc2)c2cc(Cl)ccc21 [Diazepam, reference compound] |  |  |  |  |  |  | minimal effective dose ([3]; po, read-out: dose showing activity, metrazole test (reference)): ~1 mg/kg; minimal effective dose ([4]; po, read-out: dose showing activity, electroshock test (reference)): ~1 mg/kg |
| Cc1ccc(-c2nnc(N3CCC(O)CC3)nc2-c2ccc(C)cc2)cc1 [Example 7, 1-[5,6-bis(4-methylphenyl)-1,2,4-triazin-3-yl]-4-piperidinol] | 900 nM | 700 nM | 3.1 mg/kg | < 25 mg/kg | 3.1 mg/kg | 3.1 mg/kg |  |
| CCc1ccc(-c2nnc(N3CCC(O)CC3)nc2-c2ccc(CC)cc2)cc1 [Example 8, 1-[5,6-bis(4-ethylphenyl)-1,2,4-triazin-3-yl]-4-piperidinol] | > 10000 nM | 3500 nM |  |  |  |  |  |
| Cc1ccccc1-c1nnc(N2CCC(O)CC2)nc1-c1ccccc1C [Example 9, 1-[5,6-bis(2-methylphenyl)-1,2,4-triazin-3-yl]-4-piperidinol] | > 10000 nM | > 10000 nM |  |  |  |  |  |
| Cc1cccc(-c2nnc(N3CCC(O)CC3)nc2-c2cccc(C)c2)c1 [Example 10, 1-[5,6-bis(3-methylphenyl)-1,2,4-triazin-3-yl]-4-piperidinol] |  | > 10000 nM |  |  |  |  |  |
| OC1CCN(c2nnc(-c3ccc(Cl)cc3)c(-c3ccc(Cl)cc3)n2)CC1 [Example 11, 1-[5,6-bis(4-chlorophenyl)-1,2,4-triazin-3-yl]-4-piperidinol] |  |  | 12.5 mg/kg | > 25 mg/kg | 25 mg/kg | > 25 mg/kg |  |
| CC(=O)OC1CCN(c2nnc(-c3ccc(C)cc3)c(-c3ccc(C)cc3)n2)CC1 [Example 12, 1-[5,6-bis(4-methylphenyl)-1,2,4-triazin-3-yl]-4-piperidinol, acetate (ester)] | 3.3 nM | 5.5 nM | 6.25 mg/kg | 25 mg/kg | 12.5 mg/kg | 12.5 mg/kg |  |
| CC(=O)OC1CCN(c2nnc(-c3ccc(Cl)cc3)c(-c3ccc(Cl)cc3)n2)CC1 [Example 13, 1-[5,6-bis[4-chlorophenyl]-1,2,4-triazin-3-yl]-4-piperidinol, acetate (ester)] | 15 nM | 12 nM | 50 mg/kg | > 50 mg/kg | > 50 mg/kg | > 50 mg/kg |  |
| CC(=O)OC1CCN(c2nnc(-c3ccccc3C)c(-c3ccccc3C)n2)CC1 [Example 14, 1-[5,6-bis(2-methylphenyl)-1,2,4-triazin-3-yl]-4-piperidinol, acetate (ester)] | 60 nM | 1000 nM | 200 mg/kg | > 200 mg/kg | 200 mg/kg | > 200 mg/kg |  |
| CCC(=O)OC1CCN(c2nnc(-c3ccc(C)cc3)c(-c3ccc(C)cc3)n2)CC1 [Example 15, 1-[5,6-bis(4-methylphenyl)-1,2,4-triazin-3-yl]-4-piperidinol, propanoate (ester)] | 10 nM | 19 nM | 12.5 mg/kg | 12.5 mg/kg | 12.5 mg/kg | 12.5 mg/kg |  |
| Cc1ccc(-c2nnc(N3CCC(OC(=O)C(C)(C)C)CC3)nc2-c2ccc(C)cc2)cc1 [Example 16, 1-[5,6-bis(4-methylphenyl)-1,2,4-triazin-3-yl]-4-piperidinol, pivaloate (ester)] | 110 nM | 14 nM |  |  |  |  |  |
| Cc1ccc(-c2nnc(N3CCC(OC(=O)c4ccccc4)CC3)nc2-c2ccc(C)cc2)cc1 [Example 17, 1-[5,6-bis(4-methylphenyl)-1,2,4-triazin-3-yl]-4-piperidinol, benzoate (ester)] | 500 nM | 1000 nM | > 200 mg/kg | > 200 mg/kg | > 200 mg/kg | > 200 mg/kg |  |
| Cc1ccc(-c2nnc(N3CCC(O)C3)nc2-c2ccc(C)cc2)cc1 (centres unmarked) [Example 18, 1-[5,6-bis(4-methylphenyl)-1,2,4-triazin-3-yl]-3-pyrrolidinol] |  |  | > 200 mg/kg | 200 mg/kg | 12.5 mg/kg | 200 mg/kg |  |
| CC(=O)OC1CCN(c2nnc(-c3ccc(C)cc3)c(-c3ccc(C)cc3)n2)C1 (centres unmarked) [Example 19, 1-[5,6-bis(4-methylphenyl)-1,2,4-triazin-3-yl]-3-pyrrolidinol, acetate (ester)] | 43 nM | 60 nM |  |  |  |  |  |
| Cc1ccc(-c2nnc(N3CCOCC3)nc2-c2ccc(C)cc2)cc1 [Example 22, 3-morpholino-5,6-bis(4-methylphenyl)-1,2,4-triazine] | 875 nM | 1140 nM |  |  |  |  |  |
| Cc1ccc(-c2nnc(N3CCC(C)CC3)nc2-c2ccc(C)cc2)cc1 [Example 25, 5,6-bis(4-methylphenyl)-3-(4-methyl-1-piperidinyl)-1,2,4-triazine] |  |  | > 200 mg/kg | > 200 mg/kg | 50 mg/kg | > 200 mg/kg |  |
| CCOC1CCN(c2nnc(-c3ccc(C)cc3)c(-c3ccc(C)cc3)n2)CC1 [Example 27, 3-(4-ethoxy-1-piperidinyl)-5,6-bis(4-methylphenyl)-1,2,4-triazine] | 10 nM | 21 nM |  |  |  |  |  |
| CNC(=O)OC1CCN(c2nnc(-c3ccc(C)cc3)c(-c3ccc(C)cc3)n2)CC1 [Example 30, 1-[5,6-bis(4-methylphenyl)-1,2,4-triazin-3-yl]-4-piperidinol, N-methyl carbamate (ester)] | 100 nM | 24 nM |  |  |  |  |  |
| Cc1ccc(-c2nnc(N3CCC(OC(=O)N(C)C)CC3)nc2-c2ccc(C)cc2)cc1 [Example 31] | 1 nM | 3 nM |  |  |  |  |  |
| Cc1ccc(-c2nnc(N3CCC(OC=O)CC3)nc2-c2ccc(C)cc2)cc1 [Example 34, 1-[5,6-bis(4-methylphenyl)-1,2,4-triazin-3-yl]-4-piperidinol, formate (ester)] | 13 nM | 10 nM |  |  |  |  |  |
| Cc1ccc(-c2nnc(N3CCC(C(N)=O)CC3)nc2-c2ccc(C)cc2)cc1 [Example 36, 1-[5,6-bis(4-methylphenyl)-1,2,4-triazin-3-yl]-4-piperidinecarboxamide] | 800 nM | 8500 nM |  |  |  |  |  |
| Cc1ccc(-c2nnc(N3CCC(CO)CC3)nc2-c2ccc(C)cc2)cc1 [Example 37, 1-[5,6-bis(4-methylphenyl)-1,2,4-triazin-3-yl]-4-piperidinemethanol] | 160 nM | 520 nM |  |  |  |  |  |
| Cc1ccc(-c2nnc(N3CCC(=NO)CC3)nc2-c2ccc(C)cc2)cc1 [Example 40, 1-[5,6-bis(4-methylphenyl)-1,2,4-triazin-3-yl]-4-piperidinone, oxime] | 1300 nM | 1600 nM |  |  |  |  |  |
